Laboratory results taken from US5314914A, “Methods and compositions for combatting herpes viruses” (BioMega/Boehringer Ingelheim Research Inc., priority 1988, dated 1994).

Assays:
[1] = molecular target: HSV-1 ribonucleotide reductase (Human alphaherpesvirus 1 strain 17, UniProt P08543+P10224); experiment: HSV-1 ribonucleotide reductase inhibition (reduction of CDP); type: biochemical, herpes simplex virus type 1 (strain F); details: for selective inhibition of the viral (HSV-1) ribonucleotide reductase over the cellular ribonucleotide reductase: HSV-1 versus hamster 96-V-2(600) ribonucleotide reductase
HSV-1 ribonucleotide reductase, sequence (P08543 whole entry): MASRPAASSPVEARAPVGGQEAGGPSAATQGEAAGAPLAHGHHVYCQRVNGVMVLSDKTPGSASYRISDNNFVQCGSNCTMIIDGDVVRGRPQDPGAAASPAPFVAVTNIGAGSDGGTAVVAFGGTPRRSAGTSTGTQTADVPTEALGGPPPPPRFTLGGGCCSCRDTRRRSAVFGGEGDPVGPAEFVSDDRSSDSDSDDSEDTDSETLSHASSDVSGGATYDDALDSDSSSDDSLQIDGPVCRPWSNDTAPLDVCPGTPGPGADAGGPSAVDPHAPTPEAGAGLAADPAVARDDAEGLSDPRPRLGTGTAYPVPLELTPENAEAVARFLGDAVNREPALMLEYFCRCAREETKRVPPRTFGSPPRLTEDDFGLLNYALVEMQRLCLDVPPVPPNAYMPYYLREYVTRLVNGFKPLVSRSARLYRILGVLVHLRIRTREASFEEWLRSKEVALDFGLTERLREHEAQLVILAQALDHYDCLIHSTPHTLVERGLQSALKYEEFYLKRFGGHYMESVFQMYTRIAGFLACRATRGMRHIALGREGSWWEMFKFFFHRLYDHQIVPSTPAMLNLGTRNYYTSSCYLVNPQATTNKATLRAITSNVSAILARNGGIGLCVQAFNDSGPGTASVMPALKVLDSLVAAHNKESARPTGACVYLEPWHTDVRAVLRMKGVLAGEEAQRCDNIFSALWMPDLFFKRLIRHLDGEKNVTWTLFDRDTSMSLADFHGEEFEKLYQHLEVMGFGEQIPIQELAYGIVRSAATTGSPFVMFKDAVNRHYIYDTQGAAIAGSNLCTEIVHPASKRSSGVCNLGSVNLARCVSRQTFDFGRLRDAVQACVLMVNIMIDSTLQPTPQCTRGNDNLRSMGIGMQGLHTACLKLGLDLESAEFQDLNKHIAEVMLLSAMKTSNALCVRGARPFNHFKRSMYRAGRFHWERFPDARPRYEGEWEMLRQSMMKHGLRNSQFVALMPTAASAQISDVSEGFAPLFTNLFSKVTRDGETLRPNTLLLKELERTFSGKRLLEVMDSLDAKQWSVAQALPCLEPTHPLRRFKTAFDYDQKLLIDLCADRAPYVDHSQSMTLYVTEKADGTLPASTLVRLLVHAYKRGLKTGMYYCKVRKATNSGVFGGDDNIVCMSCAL
HSV-1 ribonucleotide reductase, sequence (P10224 whole entry): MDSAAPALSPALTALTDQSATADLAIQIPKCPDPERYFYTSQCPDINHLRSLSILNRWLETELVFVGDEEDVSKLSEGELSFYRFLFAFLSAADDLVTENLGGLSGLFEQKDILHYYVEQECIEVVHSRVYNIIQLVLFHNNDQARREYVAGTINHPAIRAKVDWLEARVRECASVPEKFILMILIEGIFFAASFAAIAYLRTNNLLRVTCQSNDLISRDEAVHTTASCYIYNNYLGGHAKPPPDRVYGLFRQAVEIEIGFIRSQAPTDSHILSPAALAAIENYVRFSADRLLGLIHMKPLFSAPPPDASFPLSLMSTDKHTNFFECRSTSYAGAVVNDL

[2] = molecular target: T1, hamster 96-V-2(600) ribonucleotide reductase (Cricetulus griseus, UniProt G3I2K8+G3I3B7); experiment: Hamster 96-V-2(600) ribonucleotide reductase inhibition (reduction of CDP); type: biochemical, Chinese hamster; details: partially purified enzyme 40 μg, in the presence of adenosine triphosphate (4 mM) and magnesium chloride (11.5 mM)
T1 construct: obtained from an overproducing strain of a Chinese hamster lung cell line; endogenous in cells; host or cells: overproducing strain 96-V-2(600) of a Chinese hamster lung cell line; partially purified
T1 sequence (G3I2K8 entry or part of it): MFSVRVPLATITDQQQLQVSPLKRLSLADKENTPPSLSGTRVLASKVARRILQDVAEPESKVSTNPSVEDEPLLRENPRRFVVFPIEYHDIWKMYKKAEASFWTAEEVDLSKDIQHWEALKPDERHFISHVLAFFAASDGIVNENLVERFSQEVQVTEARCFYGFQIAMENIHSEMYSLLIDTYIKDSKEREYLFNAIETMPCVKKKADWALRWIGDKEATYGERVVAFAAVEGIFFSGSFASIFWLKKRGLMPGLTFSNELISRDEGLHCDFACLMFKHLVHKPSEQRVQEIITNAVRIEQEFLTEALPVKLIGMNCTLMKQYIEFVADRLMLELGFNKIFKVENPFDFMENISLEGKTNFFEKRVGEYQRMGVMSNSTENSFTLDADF
T1 sequence (G3I3B7 entry or part of it): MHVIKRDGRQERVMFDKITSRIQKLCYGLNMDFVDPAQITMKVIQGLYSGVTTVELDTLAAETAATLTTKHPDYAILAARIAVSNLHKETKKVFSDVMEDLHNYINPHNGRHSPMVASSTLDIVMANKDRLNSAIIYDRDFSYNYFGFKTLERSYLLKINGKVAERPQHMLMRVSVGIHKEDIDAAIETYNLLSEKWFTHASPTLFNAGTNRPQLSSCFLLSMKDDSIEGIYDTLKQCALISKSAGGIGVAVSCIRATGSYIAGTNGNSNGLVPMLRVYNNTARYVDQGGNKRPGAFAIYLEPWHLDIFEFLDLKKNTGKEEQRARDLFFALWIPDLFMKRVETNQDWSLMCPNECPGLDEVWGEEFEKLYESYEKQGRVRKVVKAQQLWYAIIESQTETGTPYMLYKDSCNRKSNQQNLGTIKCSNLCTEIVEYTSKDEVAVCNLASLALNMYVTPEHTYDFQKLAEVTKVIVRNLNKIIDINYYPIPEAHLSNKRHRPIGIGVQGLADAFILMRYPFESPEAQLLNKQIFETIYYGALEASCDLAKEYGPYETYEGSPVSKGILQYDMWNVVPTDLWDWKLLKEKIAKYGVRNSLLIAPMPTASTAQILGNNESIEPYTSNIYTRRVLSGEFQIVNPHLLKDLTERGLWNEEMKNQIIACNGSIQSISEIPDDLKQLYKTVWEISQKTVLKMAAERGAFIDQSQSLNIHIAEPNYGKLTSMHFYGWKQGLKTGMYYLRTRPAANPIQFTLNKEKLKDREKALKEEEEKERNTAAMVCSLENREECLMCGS
Protocol: Hamster 96-V-2(600) ribonucleotide reductase (partially purified) was obtained from an overproducing strain of a Chinese hamster lung cell line as described by W. H. Lewis and P. R. Srinivasan, Mol. Cell Biol., 3, 1053 (1983).
Samples of the HSV-1 ribonucleotide reductase (65 μg with a specific activity of 26 units per mg) were mixed with increasing concentrations of the test compound, i.e. the naphthalene noted in the title of this example, in a series of tubes. Ribonucleotide reductase activity was assayed by monitoring the reduction of cytidine diphosphate (CDP) as described by Cohen et al., supra. The standard reaction mixture, in a final volume of 60 μl, contained: 50 mM, N-2-hydroxyethylpiperazine-N'-2-ethanesulfonic acid (pH 7.8); 4 mM NaF, 30 mM DL-dithiothreitol (DTT); 1 mM bacitracin, 54 μM CDP and 0.25 μCi of [^3 H]CDP. After 30 minutes of incubation at 37° C., the reaction was stopped by immersing the tube in boiling water for 4 minutes. The precipitate was removed by centrifugation. Nucleotides in the supernatant were converted to nucleosides by enzymatic hydrolysis. The deoxyribonucleosides were subsequently separated from the ribonucleosides by ascending polyethyleneimine-celulose chromatography. […] The results, shown in FIGURE 1, are expressed as a percentage of the activity obtained in the controls.

Row | SMILES | selective inhibition of the viral (HSV-1) ribonucleotide reductase over the cellular ribonucleotide reductase [1] | IC50 [2] [µM] | inhibitory effect of increasing concentrations on HSV-1 ribonucleotide reductase activity (FIG. 1, percentage of control activity) ([1]; increasing concentrations of the test compound)
1 | CCCOC1=C(OCCC)C(=O)c2cc(Cl)ccc2C1=O [6-chloro-2,3-dipropoxy-1,4-naphthalenedione] | selective inhibition | – | –
2 | COC1=C(OC)C(=O)c2cc(OC)ccc2C1=O [2,3,6-trimethoxy-1,4-naphthalenedione] | selective inhibition | – | –
3 | COC1=C(OC)C(=O)c2cc(Cl)ccc2C1=O [6-Chloro-2,3-dimethoxy-1,4-naphthalenedione] | selective inhibition | > 250 | progressively greater inhibitory effect
4 | COC1=C(OC)C(=O)c2cc(C#N)ccc2C1=O [6-cyano-2,3-dimethoxy-1,4-naphthalenedione] | selective inhibition | – | –
5 | COC1=C(OC)C(=O)c2ccccc2C1=O [2,3-dimethoxy-1,4-naphthalenedione] | selective inhibition | – | –
6 | CCOC1=C(OCC)C(=O)c2cc(Cl)ccc2C1=O [6-chloro-2,3-diethoxy-1,4-naphthalenedione] | selective inhibition | – | –
